Values quoted from earlier work as cited in US20020150615A1, “Injectable pharmaceutical composition comprising microdroplets of a camptothecin” (priority 2001, published 2002).

Experiments:
[1] = target: human serum albumin (HSA) (Homo sapiens, UniProt P02768); details: PBS at pH 7.4
[2] = human whole blood

Sequence of human serum albumin (HSA) (P02768 25-609): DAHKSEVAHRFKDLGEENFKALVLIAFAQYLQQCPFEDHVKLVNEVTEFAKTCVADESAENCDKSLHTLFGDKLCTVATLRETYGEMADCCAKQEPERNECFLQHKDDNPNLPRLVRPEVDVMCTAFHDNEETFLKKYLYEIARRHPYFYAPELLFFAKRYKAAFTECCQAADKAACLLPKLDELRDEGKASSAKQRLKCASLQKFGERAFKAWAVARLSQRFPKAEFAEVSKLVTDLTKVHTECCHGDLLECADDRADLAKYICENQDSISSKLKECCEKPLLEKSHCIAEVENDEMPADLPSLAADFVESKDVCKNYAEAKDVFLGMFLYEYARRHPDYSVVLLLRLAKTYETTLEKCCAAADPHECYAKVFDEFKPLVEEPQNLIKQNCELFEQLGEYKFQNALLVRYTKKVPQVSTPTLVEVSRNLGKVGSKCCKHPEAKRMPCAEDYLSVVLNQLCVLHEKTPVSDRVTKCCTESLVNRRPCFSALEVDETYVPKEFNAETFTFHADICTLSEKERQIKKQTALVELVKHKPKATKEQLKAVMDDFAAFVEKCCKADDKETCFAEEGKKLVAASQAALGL

## CC[C@@]1(O)C(=O)OCc2c1cc1n(c2=O)Cc2cc3ccccc3nc2-1 [camptothecin, 20(S)-camptothecin]
[1]
  affinity of the carboxylate form relative to the α-hydroxy lactone form: 150 fold
[2]
  half-life of lactone ring opening: 22 min
